From ChEMBL document CHEMBL2406981, “Novel pyrazoline amidoxime and their 1,2,4-oxadiazole analogues: synthesis and pharmacological screening” (Bioorg Med Chem Lett, 2013)
Converted amounts (≈) assume the structure as drawn.

System: Aspergillus flavus
Test: Antimicrobial activity against Aspergillus flavus MTCC 873 at 100 ug/ml after 24 hrs by agar disc diffusion method
Type: functional
Settings: MTCC 873, 24 h, read-out: DIZ
For `Oc1ccc(C2=NN(c3ccccc3)C(c3noc(-c4ccc(O)cc4)n3)C2)cc1` (stereo unspecified), the zone of inhibition at 100 µg/mL was 20 mm.

System: not listed separately
Test: Antioxidant activity assessed as reducing power of ferric ion at 50 ug/ml after 20 mins
Type: functional
Parameters: scale not given: the % may be the effect or the level left
Settings: not given
Work on `Oc1ccc(C2=NN(c3ccccc3)C(c3noc(-c4ccc(O)cc4)n3)C2)cc1` (stereo unspecified) yielded an Activity of 30%.

System: Bacillus cereus
Test: Antimicrobial activity against Bacillus cereus MTCC 8372 at 50 ug/ml after 24 hrs by agar disc diffusion method
Type: functional
Settings: MTCC 8372, 24 h, read-out: DIZ
For `Oc1ccc(C2=NN(c3ccccc3)C(c3noc(-c4ccc(O)cc4)n3)C2)cc1` (stereo unspecified), the zone of inhibition at 50 µg/mL was 6 mm.

System: Radical scavenging activity
Test: Antioxidant activity assessed as DPPH free radical scavenging activity at 100 ug/ml after 20 mins
Type: functional
Settings: not given
With `Oc1ccc(C2=NN(c3ccccc3)C(c3noc(-c4ccc(O)cc4)n3)C2)cc1` (stereo unspecified) the Activity was 86%.

System: Shigella flexneri
Test: Antimicrobial activity against Shigella flexneri MTCC 1457
Type: functional
Settings: not given
Work on `Oc1ccc(C2=NN(c3ccccc3)C(c3noc(-c4ccc(O)cc4)n3)C2)cc1` (stereo unspecified) yielded an MIC of 10 µg/mL (≈ 25.1 µM).

System: Staphylococcus aureus
Test: Antimicrobial activity against Staphylococcus aureus MTCC 96 at 100 ug/ml after 24 hrs by agar disc diffusion method
Type: functional
Settings: MTCC 96, 24 h, read-out: DIZ
In the case of `Oc1ccc(C2=NN(c3ccccc3)C(c3noc(-c4ccc(O)cc4)n3)C2)cc1` (stereo unspecified), the zone of inhibition at 100 µg/mL is reported as 12 mm.

System: Staphylococcus aureus
Test: Antimicrobial activity against Staphylococcus aureus MTCC 96
Type: functional
Settings: not given
With `Oc1ccc(C2=NN(c3ccccc3)C(c3noc(-c4ccc(O)cc4)n3)C2)cc1` (stereo unspecified) the MIC was 20 µg/mL (≈ 50.2 µM).

System: Radical scavenging activity
Test: Antioxidant activity assessed as DPPH free radical scavenging activity at 50 ug/ml after 20 mins
Type: functional
Settings: not given
`Oc1ccc(C2=NN(c3ccccc3)C(c3noc(-c4ccc(O)cc4)n3)C2)cc1` (stereo unspecified) showed an Activity of 47%.

System: Shigella flexneri
Test: Antimicrobial activity against Shigella flexneri MTCC 1457 at 100 ug/ml after 24 hrs by agar disc diffusion method
Type: functional
Settings: MTCC 1457, 24 h, read-out: DIZ
`Oc1ccc(C2=NN(c3ccccc3)C(c3noc(-c4ccc(O)cc4)n3)C2)cc1` (stereo unspecified) showed a zone of inhibition at 100 µg/mL of 22 mm.

System: Aspergillus niger
Test: Antimicrobial activity against Aspergillus niger MTCC 281 at 50 ug/ml after 24 hrs by agar disc diffusion method
Type: functional
Settings: MTCC 281, 24 h, read-out: DIZ
`Oc1ccc(C2=NN(c3ccccc3)C(c3noc(-c4ccc(O)cc4)n3)C2)cc1` (stereo unspecified) showed a zone of inhibition at 50 µg/mL of 14 mm.

System: Escherichia coli
Test: Antimicrobial activity against Escherichia coli MTCC 724
Type: functional
Settings: not given
`Oc1ccc(C2=NN(c3ccccc3)C(c3noc(-c4ccc(O)cc4)n3)C2)cc1` (stereo unspecified) gave an MIC of 10 µg/mL (≈ 25.1 µM).

System: Bacillus cereus
Test: Antimicrobial activity against Bacillus cereus MTCC 8372
Type: functional
Settings: not given
With `Oc1ccc(C2=NN(c3ccccc3)C(c3noc(-c4ccc(O)cc4)n3)C2)cc1` (stereo unspecified) the MIC was 25 µg/mL (≈ 62.7 µM).

System: Escherichia coli
Test: Antimicrobial activity against Escherichia coli MTCC 724 at 100 ug/ml after 24 hrs by agar disc diffusion method
Type: functional
Settings: MTCC 724, 24 h, read-out: DIZ
For `Oc1ccc(C2=NN(c3ccccc3)C(c3noc(-c4ccc(O)cc4)n3)C2)cc1` (stereo unspecified), the zone of inhibition at 100 µg/mL was 20 mm.

System: Klebsiella pneumoniae
Test: Antimicrobial activity against Klebsiella pneumoniae MTCC 3384
Type: functional
Settings: not given
With `Oc1ccc(C2=NN(c3ccccc3)C(c3noc(-c4ccc(O)cc4)n3)C2)cc1` (stereo unspecified) the MIC was 15 µg/mL (≈ 37.6 µM).

System: Shigella flexneri
Test: Antimicrobial activity against Shigella flexneri MTCC 1457 at 50 ug/ml after 24 hrs by agar disc diffusion method
Type: functional
Settings: MTCC 1457, 24 h, read-out: DIZ
Work on `Oc1ccc(C2=NN(c3ccccc3)C(c3noc(-c4ccc(O)cc4)n3)C2)cc1` (stereo unspecified) yielded a zone of inhibition at 50 µg/mL of 14 mm.

System: Klebsiella pneumoniae
Test: Antimicrobial activity against Klebsiella pneumoniae MTCC 3384 at 100 ug/ml after 24 hrs by agar disc diffusion method
Type: functional
Settings: MTCC 3384, 24 h, read-out: DIZ
With `Oc1ccc(C2=NN(c3ccccc3)C(c3noc(-c4ccc(O)cc4)n3)C2)cc1` (stereo unspecified) the zone of inhibition at 100 µg/mL was 16 mm.

System: Klebsiella pneumoniae
Test: Antimicrobial activity against Klebsiella pneumoniae MTCC 3384 at 50 ug/ml after 24 hrs by agar disc diffusion method
Type: functional
Settings: MTCC 3384, 24 h, read-out: DIZ
With `Oc1ccc(C2=NN(c3ccccc3)C(c3noc(-c4ccc(O)cc4)n3)C2)cc1` (stereo unspecified) the zone of inhibition at 50 µg/mL was 10 mm.

System: Aspergillus flavus
Test: Antimicrobial activity against Aspergillus flavus MTCC 873 at 50 ug/ml after 24 hrs by agar disc diffusion method
Type: functional
Settings: MTCC 873, 24 h, read-out: DIZ
Work on `Oc1ccc(C2=NN(c3ccccc3)C(c3noc(-c4ccc(O)cc4)n3)C2)cc1` (stereo unspecified) yielded a zone of inhibition at 50 µg/mL of 12 mm.

System: not listed separately
Test: Antioxidant activity assessed as reducing power of ferric ion at 100 ug/ml after 20 mins
Type: functional
Parameters: scale not given: the % may be the effect or the level left
Settings: not given
Compound `Oc1ccc(C2=NN(c3ccccc3)C(c3noc(-c4ccc(O)cc4)n3)C2)cc1` (stereo unspecified) has an Activity of 76%.

System: Bacillus cereus
Test: Antimicrobial activity against Bacillus cereus MTCC 8372 at 100 ug/ml after 24 hrs by agar disc diffusion method
Type: functional
Settings: MTCC 8372, 24 h, read-out: DIZ
`Oc1ccc(C2=NN(c3ccccc3)C(c3noc(-c4ccc(O)cc4)n3)C2)cc1` (stereo unspecified) showed a zone of inhibition at 100 µg/mL of 10 mm.

System: not listed separately
Test: Antioxidant activity assessed as reducing power of ferric ion at 10 ug/ml after 20 mins
Type: functional
Parameters: scale not given: the % may be the effect or the level left
Settings: not given
Compound `Oc1ccc(C2=NN(c3ccccc3)C(c3noc(-c4ccc(O)cc4)n3)C2)cc1` (stereo unspecified) has an Activity of 12%.

System: not listed separately
Test: Antioxidant activity against ferric chloride-induced lipid peroxidation using egg lecithin at 100 ug/ml after 1 hr
Type: functional
Settings: not given
For `Oc1ccc(C2=NN(c3ccccc3)C(c3noc(-c4ccc(O)cc4)n3)C2)cc1` (stereo unspecified), the inhibition was 78%.

System: not listed separately
Test: Antioxidant activity against ferric chloride-induced lipid peroxidation using egg lecithin at 10 ug/ml after 1 hr
Type: functional
Settings: not given
Work on `Oc1ccc(C2=NN(c3ccccc3)C(c3noc(-c4ccc(O)cc4)n3)C2)cc1` (stereo unspecified) yielded an inhibition of 34%.

System: Radical scavenging activity
Test: Antioxidant activity assessed as DPPH free radical scavenging activity at 10 ug/ml after 20 mins
Type: functional
Settings: not given
`Oc1ccc(C2=NN(c3ccccc3)C(c3noc(-c4ccc(O)cc4)n3)C2)cc1` (stereo unspecified) gave an Activity of 31%.

System: Aspergillus niger
Test: Antimicrobial activity against Aspergillus niger MTCC 281 at 100 ug/ml after 24 hrs by agar disc diffusion method
Type: functional
Settings: MTCC 281, 24 h, read-out: DIZ
`Oc1ccc(C2=NN(c3ccccc3)C(c3noc(-c4ccc(O)cc4)n3)C2)cc1` (stereo unspecified) showed a zone of inhibition at 100 µg/mL of 22 mm.

System: Aspergillus niger
Test: Antimicrobial activity against Aspergillus niger MTCC 281
Type: functional
Settings: not given
For `Oc1ccc(C2=NN(c3ccccc3)C(c3noc(-c4ccc(O)cc4)n3)C2)cc1` (stereo unspecified), the MIC was 10 µg/mL (≈ 25.1 µM).

System: Escherichia coli
Test: Antimicrobial activity against Escherichia coli MTCC 724 at 50 ug/ml after 24 hrs by agar disc diffusion method
Type: functional
Settings: MTCC 724, 24 h, read-out: DIZ
In the case of `Oc1ccc(C2=NN(c3ccccc3)C(c3noc(-c4ccc(O)cc4)n3)C2)cc1` (stereo unspecified), the zone of inhibition at 50 µg/mL is reported as 12 mm.

System: not listed separately
Test: Antiinflammatory activity against heat-induced albumin denaturation at […] preincubated for 15 mins before heat induction by UV-vis spectrophotometer analysis
Type: functional
Settings: not given
Work on `Oc1ccc(C2=NN(c3ccccc3)C(c3noc(-c4ccc(O)cc4)n3)C2)cc1` (stereo unspecified) yielded an inhibition of 69.7%.

System: not listed separately
Test: Antioxidant activity against ferric chloride-induced lipid peroxidation using egg lecithin at 50 ug/ml after 1 hr
Type: functional
Settings: not given
Work on `Oc1ccc(C2=NN(c3ccccc3)C(c3noc(-c4ccc(O)cc4)n3)C2)cc1` (stereo unspecified) yielded an inhibition of 58%.

System: Aspergillus flavus
Test: Antimicrobial activity against Aspergillus flavus MTCC 873
Type: functional
Settings: not given
Work on `Oc1ccc(C2=NN(c3ccccc3)C(c3noc(-c4ccc(O)cc4)n3)C2)cc1` (stereo unspecified) yielded an MIC of 10 µg/mL (≈ 25.1 µM).

System: Staphylococcus aureus
Test: Antimicrobial activity against Staphylococcus aureus MTCC 96 at 50 ug/ml after 24 hrs by agar disc diffusion method
Type: functional
Settings: MTCC 96, 24 h, read-out: DIZ
Compound `Oc1ccc(C2=NN(c3ccccc3)C(c3noc(-c4ccc(O)cc4)n3)C2)cc1` (stereo unspecified) has a zone of inhibition at 50 µg/mL of 8 mm.
